Experimental data as given in PMC3813382 (The Journal of General Physiology, 2013).

Molecular target: T1, WT Slo2.1 channels (Homo sapiens, UniProt Q6UVM3)
T1 sequence (Q6UVM3 1-1135): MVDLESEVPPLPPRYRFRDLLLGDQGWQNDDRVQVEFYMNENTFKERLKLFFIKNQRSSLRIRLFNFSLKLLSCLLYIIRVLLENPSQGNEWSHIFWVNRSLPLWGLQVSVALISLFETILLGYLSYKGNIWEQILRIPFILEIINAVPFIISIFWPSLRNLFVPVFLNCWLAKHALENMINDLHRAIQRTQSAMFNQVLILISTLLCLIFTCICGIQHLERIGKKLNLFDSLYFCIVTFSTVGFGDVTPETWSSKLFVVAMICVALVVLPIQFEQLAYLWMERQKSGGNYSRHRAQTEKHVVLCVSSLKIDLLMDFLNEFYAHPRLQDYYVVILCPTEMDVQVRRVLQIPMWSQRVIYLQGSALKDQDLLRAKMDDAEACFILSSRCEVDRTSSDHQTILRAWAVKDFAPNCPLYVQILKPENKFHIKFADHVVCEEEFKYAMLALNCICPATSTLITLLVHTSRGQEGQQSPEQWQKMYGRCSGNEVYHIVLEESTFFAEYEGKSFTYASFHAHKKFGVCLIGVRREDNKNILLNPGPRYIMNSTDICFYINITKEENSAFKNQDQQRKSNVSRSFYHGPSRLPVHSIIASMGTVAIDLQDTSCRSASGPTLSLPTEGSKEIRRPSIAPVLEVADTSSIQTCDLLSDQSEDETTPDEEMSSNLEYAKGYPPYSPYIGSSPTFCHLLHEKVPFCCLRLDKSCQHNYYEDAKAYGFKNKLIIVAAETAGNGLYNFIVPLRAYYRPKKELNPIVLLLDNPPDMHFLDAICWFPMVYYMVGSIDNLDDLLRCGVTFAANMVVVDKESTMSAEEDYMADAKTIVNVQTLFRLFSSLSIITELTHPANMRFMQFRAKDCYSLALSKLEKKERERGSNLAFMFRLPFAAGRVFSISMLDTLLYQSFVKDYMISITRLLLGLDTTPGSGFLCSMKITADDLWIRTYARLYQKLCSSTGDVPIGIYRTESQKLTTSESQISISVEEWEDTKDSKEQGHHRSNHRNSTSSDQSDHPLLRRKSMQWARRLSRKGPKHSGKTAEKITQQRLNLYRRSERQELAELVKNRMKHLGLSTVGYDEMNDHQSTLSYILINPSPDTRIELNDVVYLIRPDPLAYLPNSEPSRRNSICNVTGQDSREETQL
Assay: Activation of ISlo2.1 by NFA, two-electrode voltage clamp in oocytes
Type: cell-based

Compound: O=C(O)c1cccnc1Nc1cccc(C(F)(F)F)c1 [NFA, niflumic acid]
- EC50: 2.1 ± 0.1 mM
- time to peak response of ISlo2.1 during repetitive pulsing (6 mM NFA, oocytes injected with ≤1 ng WT cRNA): ~3 min
